Measured values reported in PubChem BioAssay AID1194 (EPA DSSTox, 2008).
The source made the active and inactive calls.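 The calls were made as follows: active = chemicals rated mutagenic or weakly mutagenic in the Salmonella bacterial test by one literature review, or positive overall by another; inconclusive = no clear call, values can overlap the other calls; inactive = the rest.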

System: Salmonella typhimurium Ames mutagenicity, literature compiled
Assay: DSSTox (CPDBAS) Carcinogenic Potency Database Salmonella Mutagenicity
Excerpt: The Carcinogenic Potency Database (CPDB) is a unique and widely used international resource of the results of over 6500 chronic, long-term animal cancer tests on over 1500 chemical substances. The CPDB provides easy access to the bioassay literature, with qualitative and quantitative analyses of both positive and negative experiments that have been published over the past 50 years in the general literature and by the National Cancer Institute/National Toxicology Program. The CPDB standardizes the diverse literature of cancer bioassays that vary widely in protocol, histopathological examination and nomenclature, and in the published author's choices of what information to provide in their papers. Results are reported in the CPDB for tests in rats, mice, hamsters, dogs, and nonhuman primates, and are based on the most positive result among all experiments for each sex-species. The DSSTox CPDBAS (all species) file incorporates data from the CPDB Summary Tables for the full list of over 1500 chemical substances tested in at least one species.
A chemical is classified within the CPDB as mutagenic, i.e. "active", in the Salmonella assay if it was evaluated overall as either "mutagenic" or "weakly mutagenic" by Zeiger [Zeiger, E. (1997) Genotoxicity Database. In: Gold and Zeiger, Eds. Handbook of Carcinogenic Potency and Genotoxicity Databases. Boca Raton, FL: CRC Press, pp. 687-729. http://potency.berkeley.edu/CRCbook.html] or as overall "positive" by the EPA Gene-Tox Program [Kier et al. (1986) Mutat. Res. 168: 69-240].

Row | SMILES | outcome
1 | CC(O)CCl (stereo unspecified) | active
2 | C=CCN(CC=C)N=O | active
3 | Cc1c(N(C)C)c(=O)n(-c2ccccc2)n1C | active
4 | CCSCCC(N)C(=O)O (stereo unspecified) | inactive
5 | CC1=C(/C=C/C(C)=C/C=C/C(C)=C/C=C/C=C(C)/C=C/C=C(C)/C=C/C2=C(C)CCCC2(C)C)C(C)(C)CCC1 | active; inactive
6 | O=C1OC(c2ccc(O)cc2)(c2ccc(O)cc2)c2ccccc21 | inactive
7 | C=CC=O | active; inactive
8 | ClCC(Br)CBr (stereo unspecified) | active; inactive
9 | IC(I)I | active
10 | CCCCC(CC)COC(=O)c1ccccc1C(=O)OCC(CC)CCCC (stereo unspecified) | inactive; active
11 | CC1CN(N=O)C(=O)NC1=O (stereo unspecified) | active
12 | c1ccc2c(c1)ccc1cc3c(ccc4ccccc43)cc12 | active
13 | CCn1cc(C(=O)O)c(=O)c2ccc(C)nc21 | inactive
14 | CCC1(c2ccccc2)C(=O)NC(=O)NC1=O | active
15 | O=[O+][O-] | active; inactive
16 | FC(F)(F)CCl | inactive
17 | O=C(O)/C=C/c1ccc(O)c(O)c1 | inactive
18 | Nc1cc(Cl)c(N)c(Cl)c1 | active
19 | CN1CCCC1=O | inactive; active
20 | CC(C)[N+](=O)[O-] | active
21 | CCOP(=S)(OCC)Oc1ccc([N+](=O)[O-])cc1 | inactive
22 | Cc1cccc2cccnc12 | active
23 | CC[C@H]1CN2CCc3cc(OC)c(OC)cc3[C@@H]2C[C@@H]1C[C@H]1NCCc2cc(OC)c(OC)cc21 | inactive; active
24 | Oc1ccc(O)cc1 | inactive
25 | O=NN1CCN(N=O)CC1 | active; inactive
26 | C[C@@H]1Cc2c(Cl)cc(C(=O)N[C@@H](Cc3ccccc3)C(=O)O)c(O)c2C(=O)O1 | inactive

Row | SMILES | outcome
27 | C=C1C(CCl)(CCl)C2(Cl)C(Cl)C(Cl)C1(Cl)C2(Cl)Cl (stereo unspecified) | active; inactive
28 | NNC(=O)c1ccncc1 | active; inactive
29 | OCC(O)CCl (stereo unspecified) | active; inactive
30 | CC(=O)OC[C@]12C[C@H](OC(=O)CC(C)C)C(C)=C[C@H]1O[C@@H]1[C@H](O)[C@@H](OC(C)=O)[C@@]2(C)C12CO2 (stereo partly specified) | inactive
31 | CCSCC[C@H](N)C(=O)O | inactive
32 | OCC1CO1 (stereo unspecified) | active; inactive
33 | O=C1C=CC(=O)C=C1 | inactive; active
34 | CC(=O)NNc1ccccc1 | active
35 | COc1ccc(O)cc1 | inactive; active
36 | CC(=O)OC/C=C(\C)CCC=C(C)C | inactive
37 | [N-]=[N+]=[N-] | active; inactive
38 | CNC(=S)N(C)C | inactive; active
39 | O=Cc1ccccc1 | inactive; active
40 | ClC(Cl)=C(Cl)C(Cl)=C(Cl)Cl | inactive; active
41 | O=NO | active
42 | CC(=O)Nc1nc(-c2ccc([N+](=O)[O-])o2)cs1 | active; inactive
43 | O=C(O)COc1cc(Cl)c(Cl)cc1Cl | inactive; active
44 | NC(=O)N(CC(=O)O)N=O | inactive
45 | CC(CN1c2ccccc2Sc2ccccc21)N(C)C (stereo unspecified) | inactive
46 | ClCC(Cl)Cl | inactive
47 | O=c1cc[nH]c(=O)[nH]1 | inactive; active
48 | CC(O)CNCC(C)O (stereo unspecified) | inactive
49 | CCOc1ccc(NC(N)=O)cc1 | inactive; active
50 | Nc1ccc(Cl)c(N)c1 | active; inactive
51 | Nc1c(Br)cc(Br)c2c1C(=O)c1ccccc1C2=O | active
52 | COC(C)(C)C | inactive; active

Row | SMILES | outcome
53 | c1ccc2sc(SSc3nc4ccccc4s3)nc2c1 | active; inactive
54 | NN | active; inactive
55 | CN(C)[C@@H]1C(=O)C(C(N)=O)=C(O)[C@@]2(O)C(=O)C3=C(O)c4c(O)cccc4[C@@](C)(O)[C@H]3[C@H](O)[C@@H]12 | inactive
56 | CCNc1nc(Cl)nc(NCC)n1 | inactive
57 | Oc1ccccc1 | inactive
58 | CC[N+](=O)[O-] | inactive; active
59 | OC(O)C(Cl)(Cl)Cl | active
60 | Cc1ccc(Cl)cc1N | inactive; active
61 | O=P1(NCCCl)OCCCN1CCCl (stereo unspecified) | active; inactive
62 | ClC1C(Cl)C(Cl)C(Cl)C(Cl)C1Cl (stereo unspecified) | inactive; active
63 | CCBr | active
64 | Cc1ccc2c(c1[N+](=O)[O-])C(=O)c1ccccc1C2=O | active; inactive
65 | CC1CO1 (stereo unspecified) | active
66 | Nc1nc(N)c2nc(-c3ccccc3)c(N)nc2n1 | inactive; active
67 | N[C@@H](Cc1c[nH]c2ccccc12)C(=O)O | inactive; active
68 | c1ccc(-c2ccccc2)cc1 | inactive
69 | C[N+](C)(C)CCO | inactive; active
70 | O=[N+]([O-])c1ccc(O)c([N+](=O)[O-])c1 | inactive
71 | O=C1NC(c2ccc([N+](=O)[O-])s2)Nc2ccccc21 (stereo unspecified) | active
72 | CCCCCCCC(=O)OCC(COC(=O)CCCCCCC)OC(=O)CCCCCCC | active; inactive
73 | O=P1(N(CCCl)CCCl)NCCCO1 (stereo unspecified) | active
74 | Nc1ncc([N+](=O)[O-])s1 | active
75 | C=CF | active; inactive
76 | O=[N+]([O-])c1cc([As](=O)(O)O)ccc1O | inactive
77 | CCOC(=O)N(C)N=O | active
78 | Cc1noc(NS(=O)(=O)c2ccc(N)cc2)c1C | inactive; active

Row | SMILES | outcome
79 | CC(O)CN(CC(C)O)CC(C)O (stereo unspecified) | inactive; active
80 | C/C=C1/C[C@@H](C)[C@](O)(CO)C(=O)OCC2=CCN3CC[C@@H](OC1=O)[C@@H]23 | active; inactive
81 | O=NN1CCCN(N=O)CC1 | active
82 | Cc1cccn2c1nc1ccc(N)nc12 | active
83 | C/C=N/O | inactive
84 | Nc1c(Cl)cc(Cl)cc1Cl | inactive; active
85 | Nc1cc(S(=O)(=O)O)cc2cc(S(=O)(=O)O)c(N=Nc3ccc(-c4ccc(N=Nc5c(S(=O)(=O)O)cc6cc(S(=O)(=O)O)cc(N)c6c5O)cc4)cc3)c(O)c12 | active
86 | CC(=O)OC(OC(C)=O)c1ccc([N+](=O)[O-])o1 | active
87 | C=CCOCC1CO1 (stereo unspecified) | active
88 | O=C(O)[C@@H]1[C@H](C(=O)O)[C@@]2(Cl)C(Cl)=C(Cl)[C@]1(Cl)C2(Cl)Cl | inactive; active
89 | C[N+](C)(C)CCCl | inactive; active
90 | NC(=O)CCCCC(N)=O | inactive
91 | [CH3][Hg][Cl] | inactive; active
92 | O=C(O)C(Cl)Cl | active
93 | CC(=O)OCc1ccccc1 | inactive; active
94 | Oc1c(Cl)cc(Cl)c(Cl)c1Cc1c(O)c(Cl)cc(Cl)c1Cl | inactive; active
95 | O=C(CCl)c1ccccc1 | inactive
96 | O=S(=O)(O)c1cc(S(=O)(=O)O)c2c(N=Nc3ccccc3)c(O)ccc2c1 | inactive; active
97 | c1cc(OCC2CO2)cc(OCC2CO2)c1 (stereo unspecified) | active
98 | COP(=O)(OC)OC | active; inactive
99 | Cl/C=C/CCl | active; inactive
100 | O=NN1CCCCCC1 | active
101 | CCN(CC)C(=S)S[Te](SC(=S)N(CC)CC)(SC(=S)N(CC)CC)SC(=S)N(CC)CC | inactive
